Target: T1, human GLP-1R (Homo sapiens, UniProt P43220)
T1 construct: expressed in transfected cells; host or cells: PEAK RAPID-derived Gα15-trans48 LD stably expressing cells (PRG48), transiently transfected with Lipofectamine 2000
Test: GLP-1 receptor in vitro calcium assay (intracellular free calcium concentration change induced via GLP-1 receptor)
Type: cell-based
Conditions: for EC50: PRG48 cells transfected with human GLP-1R, compound added with 250 pM GLP-1, Ca2+ response ΔF/F, read-out: Ca EC50 value; for GLP-1 receptor action enhancing activity (vs BETP): intensity compared to BETP, activity of BETP as 1
Description: The supernatant was removed by centrifugation (1,200 rpm, 3 min), and the cells were suspended at 4×10^6 cells/mL in 5% FBS DMEM/Ham's F-12. 1.0 mL thereof was seeded in a 15 cm dish and cultured (37° C., 5% CO2) overnight. The next day, the medium of the cultured PRG48 cells was replaced with 5% FBS DMEM/Ham's F-12 medium (30 mL), human GLP-1R gene mixture solution (GLP-1R/pc.DNA3.1(+) 60 μg) prepared using 6.0 mL of Opti-MEM (invitrogen) and 120 μL of Lipofectamin 2000 (invitrogen) was slowly added to the cells, and cultured (37° C., 5% CO2) for 6 hr to introduce the gene. […] The cells were counted, suspended at 0.5×10^6 cells/mL in 5% FBS DMEM/Ham's F-12 medium, and seeded in each well of D-Lysine coat 96 well plate (BD Bioscience) at 7.0×10^4 cells. After static adhesion at room temperature for 1 hr, the cells were cultured overnight (37° C., 5% CO2). The medium in the Cultured 96 well was entirely discarded, 150 μL of intracellular calcium measurement staining solution Calcium assay kit Express (Molecular Device) diluted 80-fold with Assay buffer (20 mM HEPES, 146 mM NaCl, 1 mM MgSO4, 1.39 mM glucose, 1 mM CaCl2, 2.5 mM Probenecid, 0.05% Casein Enzymatic Hydrolysate) was added, and the mixture was stood at 37° C. for 30 min, and then at room temperature for 45 min to perform staining. After staining, 250 pM GLP-1 and the compound were added and Ca^2+ response was observed by using FDSSμCELL (Hamamatsu Photonics K.K.). Each evaluation compound was dissolved in DMSO, further diluted with Assay buffer and used.
For evaluation, the fluorescence values (Ex480:Em540) before and after addition were measured, and changes in the intracellular free calcium concentration produced via GLP-1R receptor by the addition were quantitatively examined. For the measurement and analysis of the fluorescence values, a soft (FDSS7000EX) attached to the FDSSμCELL was used, and ΔF/F value ((maximum fluorescence value after stimulation−minimum fluorescence value after stimulation)/fluorescence value before stimulation) was calculated. Using the obtained ΔF/F values, EC50 value was calculated by Prism5.

T1 sequence (P43220 24-463): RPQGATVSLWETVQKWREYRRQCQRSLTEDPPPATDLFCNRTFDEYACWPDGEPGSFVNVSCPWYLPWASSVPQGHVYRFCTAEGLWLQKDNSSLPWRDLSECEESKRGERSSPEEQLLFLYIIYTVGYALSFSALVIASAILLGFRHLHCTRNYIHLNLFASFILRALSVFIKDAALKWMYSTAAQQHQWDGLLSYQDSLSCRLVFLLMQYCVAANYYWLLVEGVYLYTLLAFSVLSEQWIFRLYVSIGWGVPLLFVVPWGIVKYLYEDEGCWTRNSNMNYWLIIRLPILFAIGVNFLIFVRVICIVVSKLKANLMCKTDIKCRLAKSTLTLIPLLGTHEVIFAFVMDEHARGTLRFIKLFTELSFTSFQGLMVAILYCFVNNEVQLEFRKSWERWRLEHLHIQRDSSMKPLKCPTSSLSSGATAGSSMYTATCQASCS

| EC50 | GLP-1 receptor action enhancing activity (vs BETP) | Structure (SMILES) |
| --- | --- | --- |
| 430 nM | 58 | Cc1ccc(S(=O)(=O)Nc2ccc(N(C)C(=O)N[C@H](Cc3ccccc3)C(=O)OC(C)(C)C)cc2)cc1 [Compound 86] |
| 1100 nM | 23 | Cc1ccc(S(=O)(=O)Nc2ccc(NC(=O)N[C@H](Cc3ccccc3)C(=O)OC(C)(C)C)cc2F)cc1 [Compound 87, tert-butyl (2R)-2-{[3-fluoro-4-(p-tolylsulfonylamino)phenyl]carbamoylamino}-3-phenyl-propanoate] |
| 1300 nM | 20 | COc1cc(NC(=O)N[C@H](Cc2ccccc2)C(=O)OC(C)(C)C)ccc1NS(=O)(=O)c1ccc(C)cc1 [Compound 88] |
| 260 nM | 98 | Cc1ccc(S(=O)(=O)Nc2ccc(NC(=O)N[C@H](CC(C)C)C(=O)N[C@H](Cc3ccccc3)c3nc(C(C)(C)C)no3)cc2)cc1 [Compound 89] |
| 1400 nM | 18 | Cc1ccc(S(=O)(=O)Nc2ccc(NC(=O)N[C@H](Cc3ccccc3)c3nnc(S)n3-c3ccccc3)cc2)cc1 [Compound 90] |
| 56 nM | 446 | CSCCCNC(=O)[C@@H](CC1CCCCC1)NC(=O)Nc1ccc(NS(=O)(=O)c2ccc(C(C)(C)C)cc2)cc1 [Compound 91] |
| 24 nM | 1028 | CC(C)CCCC(C)NC(=O)[C@@H](CC1CCCCC1)NC(=O)Nc1cccc(NS(=O)(=O)c2ccc(C(C)(C)C)cc2)c1 (some centres unmarked) [Compound 92] |
| 45 nM | 555 | CCCCCCNC(=O)[C@@H](CC1CCCCC1)NC(=O)Nc1cccc(NS(=O)(=O)c2ccc(C(C)(C)C)cc2)c1 [Compound 93] |
| 180 nM | 140 | CC(C)CCCC(C)NC(=O)[C@@H](Cc1c[nH]c2ccccc12)NC(=O)Nc1cccc(NS(=O)(=O)c2ccc(C(C)(C)C)cc2)c1 (some centres unmarked) [Compound 94] |
| 250 nM | 101 | CCCCCCNC(=O)[C@@H](Cc1c[nH]c2ccccc12)NC(=O)Nc1cccc(NS(=O)(=O)c2ccc(C(C)(C)C)cc2)c1 [Compound 95] |
| 72 nM | 350 | CCCCC(CC)CNC(=O)[C@@H](Cc1c[nH]c2ccccc12)NC(=O)Nc1ccc(NS(=O)(=O)c2ccc(C(C)(C)C)cc2)cc1F (stereo partly drawn) [Compound 98, (2R)-2-[[4-[(4-tert-butylphenyl)sulfonylamino]-2-fluoro-phenyl]carbamoylamino]-N-(2-ethylhexyl)-3-(1H-indol-3-yl)propanamide] |
| 150 nM | 169 | CC(C)(C)SCCCCCNC(=O)[C@@H](CC1CCCCC1)NC(=O)Nc1ccc(NS(=O)(=O)c2ccc(C(C)(C)C)cc2)cc1 [Compound 99] |
| 50 nM | 503 | CCCCC(CC)CNC(=O)[C@@H](CC1CCCCC1)NC(=O)Nc1ccc(N2CCOCC2)c(NS(=O)(=O)c2ccc(C(C)(C)C)cc2)c1 (stereo partly drawn) [Compound 100, (2R)-2-({3-[(4-tert-butylphenyl)sulfonylamino]-4-morpholino-phenyl}carbamoylamino)-3-cyclohexyl-N-(2-ethylhexyl)propanamide] |
| 20 nM | 1272 | CCCCC(CC)CNC(=O)[C@@H](CC1CCCCC1)NC(=O)N(CC(=O)O)c1ccc(NS(=O)(=O)c2ccc(C(C)(C)C)cc2)cc1 (some centres unmarked) [Compound 101] |
| 130 nM | 193 | CC(C)CCCC(C)NC(=O)[C@@H](Cc1cccnc1)NC(=O)Nc1ccc(NS(=O)(=O)c2ccc(C(C)(C)C)cc2)cc1 (some centres unmarked) [Compound 102] |
| 130 nM | 195 | CC(C)CCCC(C)NC(=O)[C@@H](Cc1cccnc1)NC(=O)Nc1cccc(NS(=O)(=O)c2ccc(C(C)(C)C)cc2)c1 (some centres unmarked) [Compound 103] |
| 480 nM | 53 | CC(C)CCCC(C)NC(=O)[C@@H](CC1CCCCC1)NC(=O)Nc1ccc(NS(=O)(=O)c2ccc(N3CCOCC3)nc2)cc1 (stereo partly drawn) [Compound 104, (2R)-3-cyclohexyl-N-(1,5-dimethylhexyl)-2-({4-[(6-morpholino-3-pyridyl)sulfonylamino]phenyl}carbamoylamino)propanamide] |
| 440 nM | 56 | CCCCCCNc1ccc(S(=O)(=O)Nc2ccc(NC(=O)N[C@H](CC3CCCCC3)C(=O)NC(C)CCCC(C)C)cc2)cn1 (some centres unmarked) [Compound 105] |
| 390 nM | 64 | CC(C)CCCC(C)NC(=O)[C@@H](Cc1ccncc1)NC(=O)Nc1ccc(NS(=O)(=O)c2ccc(C(C)(C)C)cc2)cc1 (some centres unmarked) [Compound 106] |
| 720 nM | 35 | COCCCNC(=O)[C@@H](CC1CCCCC1)NC(=O)Nc1ccc(NS(=O)(=O)c2ccc(C(C)(C)C)cc2)cc1 [Compound 107] |
| 1.5 nM | 17107 | CC(C)CCCC(C)NC(=O)[C@@H](CC1CCCCC1)NC(=O)N(CC(=O)O)c1ccc(NS(=O)(=O)c2ccc(C(C)(C)C)cc2)cc1 (stereo partly drawn) [Compound 108, 2-(4-[(4-tert-butylphenyl)sulfonylamino]-N-{[(1R)-1-(cyclohexylmethyl)-2-(1,5-dimethylhexylamino)-2-oxo-ethyl]carbamoyl}anilino)acetic acid] |
| 11 nM | 2311 | CCCCCCNc1ccc(S(=O)(=O)Nc2cccc(NC(=O)N[C@H](CC3CCCCC3)C(=O)NC(C)CCCC(C)C)c2)cn1 (some centres unmarked) [Compound 109] |
| 4.4 nM | 5731 | CCCCCCNc1ccc(S(=O)(=O)Nc2cccc(NC(=O)N[C@H](Cc3c[nH]c4ccccc34)C(=O)NC(C)CCCC(C)C)c2)cn1 (some centres unmarked) [Compound 110] |
| 3.3 nM | 7694 | CCCCC(CC)CNC(=O)[C@@H](CC1CCCCC1)NC(=O)Nc1ccc(N(CCCSC)S(=O)(=O)c2ccc(C(C)(C)C)cc2)cc1 (some centres unmarked) [Compound 111] |
| 11 nM | 2206 | CSCCCN(c1ccc(NC(=O)N[C@H](Cc2c[nH]c3ccccc23)C(=O)NC(C)CCCC(C)C)cc1)S(=O)(=O)c1ccc(C(C)(C)C)cc1 (some centres unmarked) [Compound 112] |
| 28 nM | 898 | CCCCCCNc1ccc(S(=O)(=O)Nc2cccc(NC(=O)N[C@H](CC3CCCCC3)C(=O)NCCCSC)c2)cn1 [Compound 113] |
| 30 nM | 850 | CCCCCCNc1ccc(S(=O)(=O)Nc2cccc(NC(=O)N[C@H](CC3CCCCC3)C(=O)NCC(CC)CCCC)c2)cn1 (some centres unmarked) [Compound 114] |

| Structure (SMILES) | EC50 | GLP-1 receptor action enhancing activity (vs BETP) |
| --- | --- | --- |
| CSCCCN(c1ccc(NC(=O)N[C@H](CC2CCCCC2)C(=O)NC(C)CCCC(C)C)cc1)S(=O)(=O)c1ccc(C(C)(C)C)cc1 (stereo partly drawn) [Compound 97, (2R)-2-({4-[(4-tert-butylphenyl)sulfonyl-(3-methylsulfanylpropyl)amino]phenyl}carbamoylamino)-3-cyclohexyl-N-(1,5-dimethylhexyl)propanamide] | 63 nM | 399 |
